Some test systems named below: MDA-N; Hs-578T; MDA-MB-231; BT-549; LXFL 529; SNB-78; HOP-18; KM-20L2.
Common to all, as to assay: inhibition of tumour cell growth, NCI panel, 48 h

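A five-concentration, 48-hour dose response in 96-well plates underlies each endpoint, interpolated linearly between surrounding concentrations. At the GI50, growth is halved.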 Active and inactive are the calls of the source. Rule as the data show it: active = GI50 up to about 1.1 µM and inactive = higher.

As for `CN(C)CCNCCN`, the GI50 in the experiment with MDA-N, with Hs-578T, with MDA-MB-231 and in the experiment with BT-549 was > 100 µM (inactive) in each case.
Consider `Cc1cc(C)c(O)c(Cc2cccc(Cc3cc(C)cc(C)c3O)c2O)c1`, for which the GI50 in the experiment with MDA-N, with Hs-578T, with MDA-MB-231 and in the experiment with BT-549 was > 100 µM (inactive) throughout.
As to `Cc1ccc(-c2cs/c(=N\c3ccccc3)n2NC(=O)c2ccncc2)cc1`, the GI50 in the experiment on MDA-N is 25.4 µM (inactive); in the experiment on Hs-578T, 57.5 µM (inactive); in the experiment on MDA-MB-231 it was 51.5 µM (inactive); with BT-549, 30.8 µM (inactive).
As for `CC[P+](C)(Cc1ccccc1)c1ccccc1` (configuration not stated), the GI50 is 74.6 µM (inactive) in the experiment on LXFL 529, > 100 µM (inactive) with SNB-78, > 100 µM (inactive) with HOP-18 and > 100 µM (inactive) in the experiment on KM-20L2.
Regarding `NC(=O)c1ccc[n+](C2=C([N-]S(=O)(=O)c3ccccc3)C(=O)c3ccccc3C2=O)c1`, the GI50 is 16.7 µM (inactive) in the experiment on MDA-N, 22 µM (inactive) in the experiment on Hs-578T, 18.1 µM (inactive) in the experiment with MDA-MB-231 and 14.8 µM (inactive) with BT-549.
As for `CC(=O)c1cccc(C)c1C(=O)O`, the GI50 is > 100 µM (inactive) with LXFL 529, 95.5 µM (inactive) in the experiment on SNB-78, > 100 µM (inactive) in the experiment with HOP-18 and > 100 µM (inactive) with KM-20L2.
As to `O=c1[nH]nc(Cc2ccccc2)n1O`, the GI50 in the experiment with MDA-N, in the experiment with Hs-578T, with MDA-MB-231 and in the experiment with BT-549 was > 100 µM (inactive) throughout.
With `COc1cccc2c1-c1c(OC)cccc1SS2`, the GI50 in the experiment on MDA-N was 2.67 µM (inactive); in the experiment on Hs-578T it was 26.1 µM (inactive); in the experiment on MDA-MB-231, 23.7 µM (inactive); in the experiment with BT-549, 27.6 µM (inactive).
Consider `Cc1nn(C(=O)c2ccncc2)c2c1C(c1ccccc1O)SC(=N)N2` (configuration not stated), for which the GI50 in the experiment on MDA-N, in the experiment with Hs-578T, with MDA-MB-231 and in the experiment with BT-549 was > 10 µM (inactive) throughout.
As for `CCC1=C(CC)C1(C#N)[N+](=O)[O-]`, the GI50 in the experiment with LXFL 529, in the experiment on SNB-78 and in the experiment on KM-20L2 was > 100 µM (inactive) in each case.
For `COc1cc2c(cc1O)C1Cc3ccc(OC)c(O)c3C(C2)N1C` (configuration not stated), the GI50 in the experiment with MDA-N was > 100 µM (inactive); with Hs-578T, 42.8 µM (inactive); in the experiment with MDA-MB-231, 41.5 µM (inactive); with BT-549, > 100 µM (inactive).
On to `CC(C)c1cccc(C(C)C)c1NC(=O)CCC(=O)NN`, for which the GI50 in the experiment on LXFL 529, in the experiment on SNB-78, in the experiment with HOP-18 and in the experiment with KM-20L2 was > 100 µM (inactive) each time.
As for `O=C(CC/C(CC(=O)c1ccc(Cl)cc1)=N\O)Nc1cccc(Cl)c1`, the GI50 in the experiment with LXFL 529, in the experiment on SNB-78 and with KM-20L2 was > 100 µM (inactive) in each case.
As for `CCOP(=O)(OCC)OC1c2[nH]ccc2-c2cc(C(=O)OC)[nH]c2C1OC` (configuration not stated), the GI50 in the experiment with MDA-N is > 100 µM (inactive); in the experiment on Hs-578T, 44.2 µM (inactive); in the experiment with MDA-MB-231, 31.6 µM (inactive); in the experiment with BT-549, 36.5 µM (inactive).
In the same order, the values of `CCSC1=N/C(=C/c2ccccc2O)C(=O)N1` are > 100 µM (inactive), 33.7 µM (inactive), 90.6 µM (inactive) and > 100 µM (inactive).
`Cc1nc2cc(/N=N/c3c(O)ccc4ccccc34)ccc2[nH]1`: the GI50 in the experiment on MDA-N was 17 µM (inactive); in the experiment with LXFL 529, 19.9 µM (inactive); in the experiment with SNB-78, 83 µM (inactive); with Hs-578T it was 28.2 µM (inactive); in the experiment on MDA-MB-231 it was 27.8 µM (inactive); in the experiment with KM-20L2 it was > 100 µM (inactive). Further, the GI50 with BT-549 is 27.2 µM (inactive).
Consider `Cc1cc(C)c2c(c1)CN1CN2Cc2cc(C)cc(C)c21`, for which the GI50 in the experiment on LXFL 529 was 32.7 µM (inactive); in the experiment on SNB-78, 17.5 µM (inactive); in the experiment on HOP-18 it was 36.4 µM (inactive).
For the compound `CC(=O)O[C@H]1[C@@H](OC2CCCC2(c2ccccc2)c2ccccc2)O[N+]([O-])=C[C@@H]1c1ccccc1` (some centres not stated), the GI50 with MDA-N is 4.94 µM (inactive); in the experiment with Hs-578T it was 6.53 µM (inactive); in the experiment on MDA-MB-231, 12.6 µM (inactive); in the experiment on BT-549, 4.24 µM (inactive).
As to `CCCCOC(=O)/C(CC(=O)C=C(C)C)=N\NS(=O)(=O)c1ccc(C)cc1`, the GI50 in the experiment with LXFL 529, with SNB-78, in the experiment with HOP-18 and with KM-20L2 was > 100 µM (inactive) each time.
As to `O=C1Cc2ccccc2N1/N=C\c1ccc([N+](=O)[O-])cc1`, the GI50 in the experiment on SNB-78, with HOP-18 and in the experiment on KM-20L2 was > 100 µM (inactive) throughout.
Turning to `CN(/N=C/c1ccccc1C(=O)O)C1=NCCCCN1`, the GI50 in the experiment with MDA-N, in the experiment on Hs-578T, in the experiment with MDA-MB-231 and in the experiment with BT-549 was > 100 µM (inactive) in each case.
For `O=C(OCc1ccccc1)c1ccccc1-c1c2ccc(=O)cc-2oc2cc(OCc3ccccc3)ccc12`, the GI50 is 4.88 µM (inactive) in the experiment with LXFL 529, 22.6 µM (inactive) in the experiment with SNB-78 and 14.6 µM (inactive) in the experiment with KM-20L2.
In the case of `Cn1c(=O)c2c(nc(C[N+]3([O-])CCOCC3)n2C)n(C)c1=O`, the GI50 in the experiment with LXFL 529 and in the experiment with KM-20L2 was > 100 µM (inactive) each time.
As for `CC1=NC(=N)N=C(C)C1/N=N/c1ccc2[nH]c(C)nc2c1` (configuration not stated), the GI50 in the experiment with MDA-N, in the experiment on Hs-578T, with MDA-MB-231 and in the experiment on BT-549 was > 100 µM (inactive) each time.
As for `[N-]=[N+]=C1C(=O)C2CC3CC(C2)CC1C3`, the GI50 in the experiment with LXFL 529, in the experiment on SNB-78, with HOP-18 and with KM-20L2 was > 100 µM (inactive) throughout.
`Oc1nnc2c(-c3ccccc3)n[nH]c2n1`: the GI50 in the experiment with LXFL 529, in the experiment with SNB-78 and in the experiment with KM-20L2 was > 100 µM (inactive) in each case.
As for `CCCNC(=O)C1C(=O)C(=O)N(CCC)C1=O` (configuration not stated), the GI50 with LXFL 529, in the experiment on SNB-78, in the experiment with HOP-18 and in the experiment on KM-20L2 was > 100 µM (inactive) each time.
`COC(=O)C(=O)C(C(=O)C(=O)Nc1cccc(OC)c1)c1nc2ccc(Cl)cc2nc1O` (configuration not stated): the GI50 in the experiment with MDA-N was > 100 µM (inactive); in the experiment with Hs-578T, 72.4 µM (inactive); in the experiment with MDA-MB-231, > 100 µM (inactive); in the experiment on BT-549 it was > 100 µM (inactive).
Consider `CC(C)C1=CCC2C(=C1)CCC1C(C)(C(=O)O)CCCC21C` (configuration not stated), for which the GI50 in the experiment with MDA-N, with Hs-578T, with MDA-MB-231 and in the experiment on BT-549 was > 100 µM (inactive) each time.
On to `Cc1ccc(C2OC(COCc3ccc(Cl)cc3)C(OCc3ccc(Cl)cc3)C2O)cc1` (configuration not stated), for which the GI50 in the experiment with LXFL 529 is 8.47 µM (inactive); in the experiment on SNB-78 it was 14.3 µM (inactive); with HOP-18, 79.4 µM (inactive); in the experiment with KM-20L2, 12.6 µM (inactive).
In the case of `OC(c1ccccc1Br)(c1ccccc1Br)C(F)(F)F`, the figures for the GI50 in the experiment on LXFL 529, with HOP-18 and with KM-20L2 were 42.1 µM (inactive), 42.8 µM (inactive) and 24.5 µM (inactive), respectively.
For `Oc1cccc(C2SCc3nc4ccccc4n32)c1` (configuration not stated), the GI50 was 40.6 µM (inactive) in the experiment with LXFL 529, > 100 µM (inactive) with SNB-78 and 0.42 µM (active) in the experiment on HOP-18.
With `CC(C)=CCC/C(C)=C/Cc1c2c(c3oc(-c4ccc(O)c(O)c4)c(O)c(=O)c3c1O)C=CC(C)(C)O2`, the GI50 is 5.02 µM (inactive) in the experiment on MDA-N, 9.46 µM (inactive) in the experiment on Hs-578T, 5.74 µM (inactive) with MDA-MB-231 and 7.66 µM (inactive) in the experiment with BT-549.
Regarding `O=C(CCC(=O)Nc1cccc(Cl)c1)CC(=O)c1ccc(F)cc1`, the GI50 with SNB-78 and in the experiment with KM-20L2 was > 100 µM (inactive) in each case.
`C#CCOC(=O)C(N)CS` (configuration not stated): the GI50 in the experiment on MDA-N, in the experiment with Hs-578T, in the experiment with MDA-MB-231 and with BT-549 was > 100 µM (inactive) in each case.
In the case of `O=[N+]([O-])C(=C(NCc1ccccc1)NCc1ccccc1)C(Cl)=C(Cl)Cl`, the GI50 with MDA-N was 25.2 µM (inactive); with Hs-578T it was 49.2 µM (inactive); in the experiment with MDA-MB-231, 29.4 µM (inactive); with BT-549, 34.4 µM (inactive).
In the same order, the values of `CC(=O)OC12CC[N+]3(C)CCCCC3C1=Nc1ccccc12` (configuration not stated) are > 100 µM (inactive), > 100 µM (inactive), > 100 µM (inactive) and > 100 µM (inactive).
The like results for `CCCCCCCCCCCCCCCCOCC(Cl)CP(=O)(O)OP(=O)(O)OCC1OC(n2cnc3c(N)ncnc32)C(O)C1O` (configuration not stated) were, in that order, > 100 µM (inactive), > 100 µM (inactive), > 100 µM (inactive) and > 100 µM (inactive).
`COc1ccc(CC(C#N)c2cc(OC)c(OC)c(OC)c2)cc1` (configuration not stated): the GI50 is < 0.01 µM (active) with MDA-N; 0.171 µM (active) in the experiment on LXFL 529; 0.227 µM (active) in the experiment with SNB-78; 0.0286 µM (active) in the experiment with Hs-578T; 0.0561 µM (active) in the experiment on MDA-MB-231; 0.0541 µM (active) with KM-20L2. Moreover, in the experiment with BT-549, the GI50 was 11.9 µM (inactive).
`C=C1C(=O)O[C@@H]2/C=C(/C)[C@@H](OC(C)=O)C[C@@H](O)/C(C)=C\[C@@H](OC(=O)[C@]3(C)O[C@@H]3C)[C@@H]12`: the GI50 in the experiment on MDA-N was 15.7 µM (inactive); with Hs-578T, 42.6 µM (inactive); in the experiment with MDA-MB-231, 16.3 µM (inactive); in the experiment with BT-549, 5.83 µM (inactive).
Regarding `Cc1ccc2c(O)cc(-c3ccc(Cl)cc3)nc2n1`, the GI50 with MDA-N is 1.56 µM (inactive); in the experiment on Hs-578T it was 11.9 µM (inactive); in the experiment on MDA-MB-231 it was 5.52 µM (inactive); in the experiment with BT-549, 2.38 µM (inactive).
As for `C[C@@H]1C[C@H](O)[C@]2(O)O[C@@H]3C[C@@]4(C=O)[C@@H](CC[C@@H]5[C@@H]4CC[C@]4(C)[C@@H](C6=CC(=O)OC6)CC[C@]54O)C[C@H]3O[C@@H]2O1` [CALOTROPIN], the GI50 was 0.0692 µM (active) in the experiment with MDA-N, 0.0263 µM (active) in the experiment on Hs-578T, 0.221 µM (active) with MDA-MB-231 and 0.0231 µM (active) in the experiment on BT-549.

(Values after ChEMBL document CHEMBL1201862, “PubChem BioAssay data set” (2004).)
